Results: PubChem BioAssay AID2060912 (Molecular Pharmacology Branch, DTP, NCI, 2025)
pIC50: −log10 of the molar value.

Tested on: HUVEC/MSC spheroids viability
Test: Human HUVEC/MSC cell line growth inhibition [KRAS2];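 on viability, T/C: percent of DMSO vehicle control luminescence so 100% = untreated viability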
Details: for pIC50: curve of first compound; for viability, T/C: stronger effect = lower value
Outline: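 Stroma-only multicellular spheroids, formed from HUVEC and human MSCs at passages </=5, received RAS-pathway inhibitors with or without a second targeted drug. Dosing followed half-log dilutions from clinically achievable levels.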

[1] = second compound 0.0316 µM, first compound 0.0316 µM
[2] = second compound 0.0316 µM, first compound 0.1 µM
[3] = second compound 0.0316 µM, first compound 0.316 µM
[4] = second compound 0.0316 µM, first compound 1 µM
[5] = second compound 0.0316 µM, first compound 3.16 µM
[6] = second compound 0.0316 µM, first compound 10 µM
[7] = second compound 0.1 µM, first compound 0.0316 µM
[8] = second compound 0.1 µM, first compound 0.1 µM
[9] = second compound 0.1 µM, first compound 0.316 µM
[10] = second compound 0.1 µM, first compound 1 µM
[11] = second compound 0.1 µM, first compound 3.16 µM
[12] = second compound 0.1 µM, first compound 10 µM
[13] = second compound 0.316 µM, first compound 0.0316 µM
[14] = second compound 0.316 µM, first compound 0.1 µM
[15] = second compound 0.316 µM, first compound 0.316 µM
[16] = second compound 0.316 µM, first compound 1 µM
[17] = second compound 0.316 µM, first compound 3.16 µM
[18] = second compound 0.316 µM, first compound 10 µM
[19] = second compound 1 µM, first compound 0.0316 µM
[20] = second compound 1 µM, first compound 0.1 µM
[21] = second compound 1 µM, first compound 0.316 µM
[22] = second compound 1 µM, first compound 1 µM
[23] = second compound 1 µM, first compound 3.16 µM
[24] = second compound 1 µM, first compound 10 µM
[25] = second compound 3.16 µM, first compound 0.0316 µM
[26] = second compound 3.16 µM, first compound 0.1 µM
[27] = second compound 3.16 µM, first compound 0.316 µM
[28] = second compound 3.16 µM, first compound 1 µM
[29] = second compound 3.16 µM, first compound 3.16 µM
[30] = second compound 3.16 µM, first compound 10 µM
[31] = second compound 10 µM, first compound 0.0316 µM
[32] = second compound 10 µM, first compound 0.1 µM
[33] = second compound 10 µM, first compound 0.316 µM
[34] = second compound 10 µM, first compound 1 µM
[35] = second compound 10 µM, first compound 3.16 µM
[36] = second compound 10 µM, first compound 10 µM

COc1cc(Nc2ncc3c(n2)-c2ccc(Cl)cc2C(c2c(F)cccc2OC)=NC3)ccc1C(=O)O + CC1OCC2(CCN(c3cnc(Sc4ccnc(N)c4Cl)c(N)n3)CC2)C1N
pIC50 (second compound 0.0316 µM): < 5.00
pIC50 (second compound 0.1 µM): < 5.00
pIC50 (second compound 0.316 µM): < 5.00
pIC50 (second compound 1 µM): 5.01
pIC50 (second compound 3.16 µM): 5.03
pIC50 (second compound 10 µM): 5.23
viability, T/C [1]: 101%
viability, T/C [2]: 128%
viability, T/C [3]: 105%
viability, T/C [4]: 87.7%
viability, T/C [5]: 85.2%
viability, T/C [6]: 60.1%
viability, T/C [7]: 118%
viability, T/C [8]: 105%
viability, T/C [9]: 97.5%
viability, T/C [10]: 87.5%
viability, T/C [11]: 103%
viability, T/C [12]: 56.9%
viability, T/C [13]: 110%
viability, T/C [14]: 116%
viability, T/C [15]: 106%
viability, T/C [16]: 101%
viability, T/C [17]: 94.7%
viability, T/C [18]: 49.5%
viability, T/C [19]: 106%
viability, T/C [20]: 101%
viability, T/C [21]: 92.9%
viability, T/C [22]: 81.7%
viability, T/C [23]: 77.2%
viability, T/C [24]: 47.4%
viability, T/C [25]: 79.5%
viability, T/C [26]: 91%
viability, T/C [27]: 72.4%
viability, T/C [28]: 88.8%
viability, T/C [29]: 79.2%
viability, T/C [30]: 48.2%
viability, T/C [31]: 66.4%
viability, T/C [32]: 76%
viability, T/C [33]: 76%
viability, T/C [34]: 72.6%
viability, T/C [35]: 70.8%
viability, T/C [36]: 32.8%

COc1cc2nccc(Oc3ccc(NC(=O)C4(C(=O)Nc5ccc(F)cc5)CC4)cc3)c2cc1OC + CC1OCC2(CCN(c3cnc(Sc4ccnc(N)c4Cl)c(N)n3)CC2)C1N
pIC50 (second compound 0.0316 µM): 5.24
pIC50 (second compound 0.1 µM): 5.34
pIC50 (second compound 0.316 µM): 5.27
pIC50 (second compound 1 µM): 5.39
pIC50 (second compound 3.16 µM): 5.44
pIC50 (second compound 10 µM): 5.51
viability, T/C [1]: 111%
viability, T/C [2]: 87.5%
viability, T/C [3]: 79.3%
viability, T/C [4]: 103%
viability, T/C [5]: 73.7%
viability, T/C [6]: 27.6%
viability, T/C [7]: 96.5%
viability, T/C [8]: 93%
viability, T/C [9]: 100%
viability, T/C [10]: 80.8%
viability, T/C [11]: 66.5%
viability, T/C [12]: 17.4%
viability, T/C [13]: 88.6%
viability, T/C [14]: 89.9%
viability, T/C [15]: 67.9%
viability, T/C [16]: 83%
viability, T/C [17]: 75%
viability, T/C [18]: 19.6%
viability, T/C [19]: 72.6%
viability, T/C [20]: 75.6%
viability, T/C [21]: 82.4%
viability, T/C [22]: 80%
viability, T/C [23]: 62.3%
viability, T/C [24]: 8.31%
viability, T/C [25]: 72.5%
viability, T/C [26]: 79%
viability, T/C [27]: 77.5%
viability, T/C [28]: 62.6%
viability, T/C [29]: 58.6%
viability, T/C [30]: 5.57%
viability, T/C [31]: 67.8%
viability, T/C [32]: 72%
viability, T/C [33]: 73.2%
viability, T/C [34]: 61.9%
viability, T/C [35]: 50.7%
viability, T/C [36]: 3.16%

Cn1ncnc1[C@H]1c2n[nH]c(=O)c3cc(F)cc(c23)N[C@@H]1c1ccc(F)cc1 + CC1OCC2(CCN(c3cnc(Sc4ccnc(N)c4Cl)c(N)n3)CC2)C1N
pIC50 (second compound 0.0316 µM): < 7.00
pIC50 (second compound 0.1 µM): < 7.00
pIC50 (second compound 0.316 µM): < 7.00
pIC50 (second compound 1 µM): < 7.00
pIC50 (second compound 3.16 µM): < 7.00
pIC50 (second compound 10 µM): < 7.00
viability, T/C (second compound 0.0316 µM, first compound 0.000316 µM): 105%
viability, T/C (second compound 0.0316 µM, first compound 0.001 µM): 111%
viability, T/C (second compound 0.0316 µM, first compound 0.00316 µM): 97.5%
viability, T/C (second compound 0.0316 µM, first compound 0.01 µM): 86.9%
viability, T/C [1]: 90.8%
viability, T/C [2]: 89.7%
viability, T/C (second compound 0.1 µM, first compound 0.000316 µM): 87.9%
viability, T/C (second compound 0.1 µM, first compound 0.001 µM): 114%
viability, T/C (second compound 0.1 µM, first compound 0.00316 µM): 99.9%
viability, T/C (second compound 0.1 µM, first compound 0.01 µM): 75.7%
viability, T/C [7]: 93.2%
viability, T/C [8]: 95.6%
viability, T/C (second compound 0.316 µM, first compound 0.000316 µM): 80%
viability, T/C (second compound 0.316 µM, first compound 0.001 µM): 111%
viability, T/C (second compound 0.316 µM, first compound 0.00316 µM): 98.5%
viability, T/C (second compound 0.316 µM, first compound 0.01 µM): 96.9%
viability, T/C [13]: 93.2%
viability, T/C [14]: 81.7%
viability, T/C (second compound 1 µM, first compound 0.000316 µM): 83.9%
viability, T/C (second compound 1 µM, first compound 0.001 µM): 93.7%
viability, T/C (second compound 1 µM, first compound 0.00316 µM): 95.4%
viability, T/C (second compound 1 µM, first compound 0.01 µM): 84.3%
viability, T/C [19]: 93.8%
viability, T/C [20]: 67.7%
viability, T/C (second compound 3.16 µM, first compound 0.000316 µM): 79.7%
viability, T/C (second compound 3.16 µM, first compound 0.001 µM): 94.4%
viability, T/C (second compound 3.16 µM, first compound 0.00316 µM): 80.9%
viability, T/C (second compound 3.16 µM, first compound 0.01 µM): 74%
viability, T/C [25]: 76.8%
viability, T/C [26]: 69.2%
viability, T/C (second compound 10 µM, first compound 0.000316 µM): 69.7%
viability, T/C (second compound 10 µM, first compound 0.001 µM): 82.3%
viability, T/C (second compound 10 µM, first compound 0.00316 µM): 67.3%
viability, T/C (second compound 10 µM, first compound 0.01 µM): 68.3%
viability, T/C [31]: 65.7%
viability, T/C [32]: 56%
